From patent publication US20200038413A1, “METHODS OF TREATING PARKINSON'S DISEASE USING AMINOSTEROL COMPOSITIONS” (Enterin, Inc., priority 2018, published 2020)

Assays:
[1] = test system: patients with PD and constipation; experiment: Phase 2 trial: circadian rhythm of wrist skin temperature; type: in vivo, human; settings: fixed dose vs baseline, 12 patients
Procedure: Assessments were made at baseline and at the end of the fixed dose and washout periods. Circadian system status was evaluated by continuously monitoring wrist skin temperature (Thermochron iButton DS1921H; Maxim, Dallas) following published procedures (Sarabia et al. 2008).
Circadian rhythm of skin temperature was evaluable in 12 patients (i.e., those who had recordings that extended from baseline through washout). Circadian system functionality was evaluated by continuously monitoring wrist skin temperature using a temperature sensor (Thermochron iButton DS1921H; Maxim, Dallas, TX) (Sarabia et al. 2008). A nonparametric analysis was performed for each participant to characterize DST as previously described (Sarabia et al. 2008; Ortiz-Tudela et al. 2010).
Briefly, this analysis includes the following parameters: (i) the inter-daily stability (the constancy of 24-hour rhythmic pattern over days, IS); (ii) intra-daily variability (rhythm fragmentation, IV); (iii) average of 10-minute intervals for the 10 hours with the minimum temperature (L10); (iv) average of 10-minute intervals for the 5 hours with the maximum temperature (M5) and the relative amplitude (RA), which was determined by the difference between M5 and L10, divided by the sum of both. Finally, the Circadian Function Index (CFI) was calculated by integrating IS, IV, and RA. Consequently, CFI is a global measure that oscillates between 0 for the absence of circadian rhythmicity and 1 for a robust circadian rhythm (Ortiz-Tudela et al. 2010).

[2] = test system: WT and A53T mice; experiment: In vivo fecal pellet output test; parameters: species or system mouse; settings: for FPO in the first 15 min: Day 5 vs Day 0
Procedure: In vivo fecal pellet output: Mice were subjected to the FPO test 1 day prior to the start of dosing with squalamine or vehicle (sterile water) (day 0). Mice were fasted for one hour and then given access to food one hour before FPO testing. On days 1-5 mice were fasted for one hour prior to oral gavage with vehicle or 20, 40, 80, or 120mg/kg squalamine. Oral gavage occurred between 10:00 to 11:00 am daily. On day 5, the FPO test was performed 1 hour after the final dose was administered. Total number of stool pellets produced in the first 15 min and over a 60 min period was measured in each group. Stool water content was measured by comparing wet and dry weights of the stool.

[3] = Preclinical oral studies in dogs; type: in vivo

With CC(C)[C@@H](CC[C@@H](C)[C@H]1CC[C@H]2[C@@H]3[C@H](O)C[C@H]4C[C@@H](NCCCNCCCCN)CC[C@]4(C)[C@H]3CC[C@]12C)OS(=O)(=O)O (single isomer, unassigned) [squalamine (ENT-01), squalamine] as the compound, how does the “relative amplitude (RA)” value ([1]; p=0.001) read?
Its value is “increasing”.

And the “circadian function index (CFI)” value ([1]; p=0.016)?
Its value is “increasing”.

And the “rhythm stability (IS)” value ([1]; p=0.026)?
The value was “increasing”.

What about the “rhythm fragmentation (IV)” value ([1]; p=0.031) of the same compound?
Its value is “reducing”.

What about the “FPO in the first 15 min” value ([2]; A53T mice, 20, 40 and 80 mg/kg oral gavage for 5 days) of the same compound?
The value was “significantly increased”.

And the fecal water content ([2]; A53T mice, 80 and 120 mg/kg oral)?
The fecal water content was “significantly increased”.

What about the fecal water content ([2]; WT mice, 80 mg/kg oral) of the same compound?
Its fecal water content is “significantly increased”.

What about the “FPO in the first 15 min” value ([2]; WT mice, 40 and 120 mg/kg oral gavage for 5 days) of the same compound?
The value was “significantly increased”.

What about the tolerability [3] of the same compound?
The tolerability was “well tolerated”.
